{"source": "patent US9943599B2", "about": "“Therapeutic applications of calcium electroporation to effectively induce tumor necrosis” (Herlev Hospital, priority 2011, dated 2018)", "key": {"[1]": {"tested_on": "H69 (human small cell lung cancer) tumors", "assay": "Hypothetical volume test of injected solution", "format": "in vivo, NMRI-Foxn1^nu mice", "conditions": "with electroporation", "experimental": "H69, a human small cell lung cancer cell line stably transfected with EGFP regulated by the cytomegalo-virus (CMV) promoter, is used for the in vivo experiments. The cells are tested by rapid MAP27 panel (Taconic, Hudson N.Y.) before use without signs of infection. Cells are maintained in vitro as described in Example 1. 1.5×10^6 cells/100 μl PBS are injected subcutaneously in both flanks of NMRI-Foxn1^nu mice (Harlan, Indianapolis, Ind.) that are 9-11 weeks old. Tumor pieces are transplanted from donor mice to the right flank of nude mice. HYPNORM™-DORMICUM™ (fentanyl/fluanisone/midazolam; VetaPharma, Leeds, U K and Roche, Basel, Switzerland) is used for anesthesia complemented with RIMADYL® (Carprofen) (Pfizer ApS, Ballerup, Denmark) […] as lidocaine (Region Hovedstadens Apotek, Herlev, Denmark) in the incision. […] Tumor volume is calculated as ab^2n/6, where “a” is the largest diameter and “b” is the largest diameter perpendicular to “a”. […] Background fluorescence is measured on the opposite flank and then the background fluorescence level is subtracted from fluorescence intensity of tumors. Finally, all fluorescence intensity below 100 normalised counts (NC) is filtered away using ART, Saint-Laurent, Quebec OPTIX® Optiview version 2.02 software (ART, Saint-Laurent, Quebec).\nThe differences in tumor volume and fluorescence intensity between tumors injected with the different solution volumes in the 4 treatment groups are evaluated as repeated measurements, validated and analysed with an exponential decrease model with Bonferroni correction for multiple comparisons using SAS® software version 9.1 (SAS, Cary, N.C.). ‘Group’, ‘days’ and ‘mouse’ are considered as factors and baseline levels of tumor volume or fluorescence intensity are used as covariant."}, "[2]": {"tested_on": "SW780 (human bladder cancer) tumors", "assay": "Fraction of necrosis after calcium electroporation, SW780 tumors", "format": "in vivo, NMRI-Foxn1^nu mice", "experimental": "LPB, a murine sarcoma cell line, B16, a murine malignant melanoma cell line, MDA-MB231, human a breast cancer cell line, HT29, a human colon cancer cell line, and SW780, a human bladder cancer cell line were used for the in vivo experiment. The cells were tested by rapid MAP27 panel (Taconic, Hudson N.Y.) before use without signs of infection. 2×10^5 cells (B16), 8×10^5 cells (LPB), 2.5×10^6 cells (MDA-MB231), and 5×10^6 cells (HT29 and SW780) in 100 μl PBS were injected subcutaneously in the flank of NMRI-Foxn1^nu mice (Harlan, Indianapolis, Ind.) that were 9-11 weeks old. Mice were randomised at a tumor volume above 85 mm^3 and tumors were treated with injection of isotonic calcium-chloride solution (168 mM CaCI2) and electroporation (8 pulses of 1.0 kv/cm for 100 μs and a frequency of 1 Hz) using a 6 mm plate electrode and a square wave electroporator (CLINIPORATOR®, IGEA, Modena, Italy). Tumor volume was calculated as ab^2n/6, where a is the largest diameter and b is the largest diameter perpendicular to a. The injected volume was half of the tumor volume. […] The fraction of necrosis within the tumor was estimated from HE-sections by stereological point counting using a light microscope, evaluated by a pathologist, blinded with respect to treatment status.\nThe difference in fraction of necrosis at different time after treatment was assessed using student's t-test."}, "DC-3F cells": {"tested_on": "DC-3F cells", "assay": "ATP assay after calcium electroporation", "format": "cell-based, Chinese hamster", "experimental": "DC-3F cells are electroporated as described in Example 1 with 1 mM calcium. Cells electroporated with HEPES buffer, non-electroporated cells with 1 mM calcium, and untreated cells are used as controls. Cell death induced by irreversible electroporation (8 pulses of 6.6 kV/cm with pulse duration of 99 μs) is used as […]. Cells are seeded in 96-well plates at a concentration of 3.1×10^4 cells/100 μl. Cells are lysed using Cell-Based Assay Lysis Buffer (Cayman Chemical, Ann Arbor, Mich.) and ATP content is determined after 1, 4 and 8 hours incubation by adding 100 μl rL/L Reagent (ENLITEN® ATP assay, Promega, Madison, Wis.) and measuring light emission using a luminometer (LUMIstar®, BMG biotechnology, Ortenberg, Germany).\nDifference in ATP level after different treatments is assessed using two-way ANOVA with post least-squares-means test with Bonferroni correction for multiple comparisons."}}}
{"compound": "[Ca+2].[Cl-].[Cl-]", "note": "[calcium chloride]", "values": [{"measurement": "tumors eliminated", "setting": "[1]; volume ratio 0.2, 004, 0.6 or 0.8", "value": "eliminates most of the tumors"}, {"measurement": "ulceration of treated tumors", "setting": "[1]", "value": "occurs in most"}, {"measurement": "fluorescence intensity of tumors", "setting": "[1]; all 4 injection volumes", "value": "decrease drastically"}, {"measurement": "fraction of necrosis in tumors, course", "setting": "[2]; 168 mM CaCl2, half tumor volume, electroporation, first days after treatment", "value": "progressive necrosis"}, {"measurement": "tumor re-growth", "setting": "[2]; 6 days after the treatment", "value": "re-growth"}, {"measurement": "ATP level, percent of control", "setting": "DC-3F cells; 1 mM calcium with electroporation, up to 8 hours after treatment", "value": 10.3, "unit": "%"}, {"measurement": "effect on ATP levels", "setting": "DC-3F cells; 1 mM calcium without electroporation", "value": "does not affect ATP levels"}]}
